The nature of one data set: Biocide migration test: biocide in strippable PV Acetate emulsion coating, film coated with cooking oil for 24 hrs, oil tested for presence of biocide. Conditions: dry film in situ, oily deposits. Type of data set: physicochemical. The method, then: Initially biocides were selected for trial on the basis that they would be innocuous in a food preparation area. Many of those initially tested are food grade or similar low toxicity biocides. Biocides were tested by incorporating the biocide in the strippable PV Acetate emulsion coating formulation, coating a film of the coating with cooking oil and leaving it in place for 24 hrs and then testing the oil for presence of Biocide. The leaching of the biocide into the oil is considered a proxy for the ability of the film to prevent microbial degradation of the oily material coated thereon.
Turning to `CCCCOC(=O)c1ccc(O)cc1` [butyl parabens, Butyl Parabens], the “Suitability as oil soluble biocide leaching from the dry film into oils deposited on the film” value is on record as “satisfactory”.
On the same count and under the same terms, under `OCCOc1ccccc1` [phenoxyethanol, Phenoxyethanol] stands “ineffective”.

Staying with this data set, now noted: strippable PV Acetate emulsion coating film coated with cooking oil, 24 hrs, oil tested for presence of biocide.
Consider `CCCOC(=O)c1ccccc1` [propyl benzoate], for which the “Leaching (migration) of the biocide from the coating into the oil” value is “passed the above test”.
On the same count and under the same terms, under `CCOC(=O)c1ccccc1` [ethylbenzoate] stands “passed the above test”; under `COC(=O)c1ccccc1` [methyl benzoate], “passed the above test”.
Same read-out and setting: as for `CCCCOC(=O)c1ccccc1` [butyl benzoate], the entry is “passed the above test”.

The record behind these values is patent publication US10487219B2, “Method and compositions for cleaning cooking range exhaust systems” (NOVAPHARM RESEARCH (AUSTRALIA) PTY LTD, priority 2015, dated 2019).
